The values that follow come from US10426751B2, “Allosteric activators for treatment of phenylketonuria” (MCMASTER UNIVERSITY, priority 2015, dated 2019).

Positions count from the first letter of the chain named. Entries after “also recorded” stand apart in the source; their conditions may differ.

The target of test [1] is T1, WT-PAH (Homo sapiens, UniProt P00439).
T1 construct: made in house; the paragraph itself says 'eukaryotic cell cultures' (pMAL vector, Martinez laboratory, University of Bergen)
T1 sequence (P00439 1-452): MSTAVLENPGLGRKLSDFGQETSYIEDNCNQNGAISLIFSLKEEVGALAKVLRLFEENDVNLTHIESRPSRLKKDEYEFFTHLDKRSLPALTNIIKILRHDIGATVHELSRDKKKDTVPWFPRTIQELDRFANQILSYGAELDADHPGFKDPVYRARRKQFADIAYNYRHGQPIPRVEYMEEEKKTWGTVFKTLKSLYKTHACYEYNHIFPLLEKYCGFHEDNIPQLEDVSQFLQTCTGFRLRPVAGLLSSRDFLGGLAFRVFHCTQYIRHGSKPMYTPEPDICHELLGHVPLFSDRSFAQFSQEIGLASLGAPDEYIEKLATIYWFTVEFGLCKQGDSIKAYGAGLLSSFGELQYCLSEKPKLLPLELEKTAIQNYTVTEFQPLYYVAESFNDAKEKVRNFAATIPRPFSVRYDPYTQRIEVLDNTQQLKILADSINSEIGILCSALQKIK
The test can be described thus: Chaperone (refolding) assay: PAH activity after dilution from 6.0 M to 0.5 M GndCl. The test is classed as biochemical. To be noted: for chaperone activity upon refolding (in words): ligand 20 μM. The method, then:
(§1) For instance, a recovery of 50% of residual enzyme activity was achieved without ligand when PAH was incubated in 8.0 M urea after its dilution to 0.5 M urea to trigger protein refolding. In order to further reduce enzyme reversibility, the recovery of PAH activity was subsequently assessed when it was incubated using 6.0 M GndCl for 10 min and subsequently diluted to 0.5 M GndCl in the presence or absence of screen-positive ligands (20 μM) in enzyme reaction buffer with PAH activity measurements performed by CE as described previously. […] Two lead compounds and several analogs of SA were subsequently tested using two different mutants of PAH (I65T and R261Q) without chemical denaturants after the two-tiered screening.

Test [2] concerns the target T1, WT-PAH. As to the kind of experiment: Primary screen (READ): ligand-induced stabilization of PAH activity in 8 M urea, Tyr formation by CE-UV. The format is biochemical. To be noted: ligand 20 μM; for stabilization / enhancement effect on PAH activity (in words): denaturing conditions. The method, then:
(§2) Tetrameric human phenylalanine hydroxylase (PAH) enzyme kinetic assays were performed off-line under standardized conditions prior to quantification of Tyr formation by CE with UV detection. Enzyme assays were performed by first mixing together Phe (1 mM), catalase (100 nM) and PAH (0.25 μM/subunit) in a reaction buffer (20 mM HEPES and 200 mM NaCl, pH 7.0) that were equilibrated at 25° C. for 4 min. Then, ferrous (Fe^2+) ammonium sulfate (100 μM) was added to the solution for 1 min and the reaction was subsequently initiated by addition of BH4 ([…]) with DTT (5 mM) using a total volume of 100 μL. The reaction mixture was then vortexed for 60 s followed by sonication for 2 min prior to centrifugation for 10 s at 4 g and storage in a refrigerator (+4° C.). An aliquot (20 μL) was withdrawn from the quenched enzyme reaction and placed in a micro vial containing Me-Tyr as IS (100 μM) prior to CE analysis. The stability of the quenched enzyme reaction was confirmed by intermittent analysis of PAH activity over 6 h at room temperature, and no significant changes in the Tyr/IS or Phe/Tyr response ratio were measured. Enzymatic reactions were performed for both WT-PAH and two PAH mutants by pre-equilibrating each ligand for 10 min prior to addition of ferrous ion and BH4/DDT as described in enzyme reaction protocol in order to assess for ligand-induced PAH inhibition or activation.
Unlike thermal stability assays that can induce protein aggregation, chemical denaturants are more suitable as perturbants to promote unfolding and enzyme inactivation while solubilizing multimeric proteins. In this context, restoration of enzyme activity upon denaturation (READ) was first introduced to characterize PCs that stabilize yet enhance the activity of a lysosomal enzyme, β-glucocerebrosidase (GCase). Herein, READ was modified, further optimized and validated for primary screening of PCs for the cytosolic enzyme (PAH) using a chemical library containing structurally unique compounds with drug-like activity. For instance, the primary screen was used to measure ligand-induced stabilization of PAH by extrinsic small molecules that impart greater resistance to urea unfolding as compared to ligand-free apo-enzyme conditions. PAH activity was first examined as a function of urea concentration (0 to 8 M) and pre-equilibration time (10 min to 2 hr) in order to determine optimum conditions where residual enzyme activity was largely attenuated below 10% due to protein unfolding. Protein unfolding was performed in triplicate offline with the enzyme reaction buffer (20 mM HEPES and 200 mM NaCl, pH 7.0) using tetrameric human PAH (1 μM and/or 0.1 μM) or mutant PAH (1 μM and/or 0.1 μM) incubated 10 min in 0 M or 8 M urea in the presence or absence of ligand (20 μM). Dose-response studies (0, 2.0 and 20 μM) were subsequently performed in triplicate on screen-positive compounds using re-synthesized ligands in order to further validate initial screen results. In all cases, quenched enzyme reactions were processed as described previously prior to CE analysis. PAH activity measurements based on Tyr formation at 8M urea with the presence or absence of PC were normalized to 0 M urea for each aliquot enzyme reaction to minimize long-term variation, which also enables direct comparison of the ligand-induced stabilization activity under denaturing conditions (8M urea) while confirming inhibition and activation effects for ligands under native conditions (0 M urea).

A further test relates to beta-amyloid peptide. To be noted: cited from earlier work.
The next test has as its system Plasmodium falciparum. The settings on record: read-out: IC50 (competitive inhibitor); cited from earlier work.
Another test deals with T2, R261Q PAH mutant (Homo sapiens, UniProt P00439, R261Q).
T2 construct: made in house; the paragraph itself says 'eukaryotic cell cultures' (pMAL vector)
T2 sequence (P00439 1-452 R261Q): T1 sequence (P00439 1-452) with R261Q
The test can be described thus: PKU-mutant activity enhancement without chemical denaturants, CE-UV. The format is biochemical. To be noted: ligand 20 μM, no denaturant. As to the method:
Expression of recombinant human WT-PAH and two PAH mutants ([…]) as fusion protein with maltose-binding protein in […] using pMAL expression vector was performed by the Martinez laboratory at the University of Bergen as described in Svebak et al., Biochem. J., 1995, 306, 589-597. Briefly, purification of the fusion proteins expressed in the pMAL vector system was performed using affinity chromatography followed by size-exclusion chromatography to remove low molecular weight components. Subsequently, the fusion proteins were cleaved by the restriction protease factor Xa and then phosphorylated by cyclic adenosine monophosphate (cAMP)-dependent protein kinase. The two clinically relevant PAH mutants, I65T and R261Q comprise single-point mutations in the regulatory and catalytic domain, respectively which are associated with highly variable phenotypes ranging from mild to classical PKU. For instance, patients with R261Q genotypes are reported to have inconsistent responses to BH4 therapy. In this work, I65T and R261Q PAH mutants were measured to have residual catalytic activities of (35±1)% and (5±0.5)% relative to WT PAH under standardized conditions (i.e., enzyme concentrations, assay buffer etc.), respectively. Stock solutions of WT-PAH and PAH mutants were prepared in enzyme reaction buffer (20 mM HEPES pH 7.0, 200 mM NaCl), and divided into separate 10 μL aliquots in 0.5 mL sterilized centrifuge tubes prior to storage at −80° C. Note that all enzyme assays were performed on aliquots of frozen enzymes thawed slowly in the fridge prior to daily use.
as §2, §1

Test [3] concerns the target T1, WT-PAH. The test can be described thus: PAH enzyme activity under native conditions (0 M urea), ligand-induced inhibition or activation. The test is classed as biochemical. The settings on record: ligand 20 μM. As to the method:
as §2, with “An aliquot (20 μL) was withdrawn from the quenched enzyme reaction and placed in a micro vial containing Me-Tyr as IS (100 μM) prior to CE analysis.” left out, “Enzymatic reactions were performed for both WT-PAH and two PAH mutants by pre-equilibrating each ligand for 10 min prior to addition of ferrous ion and BH4/DDT as described in enzyme reaction protocol in order to assess for ligand-induced PAH inhibition or activation.” left out
Unlike thermal stability assays that can induce protein aggregation, chemical denaturants are more suitable as perturbants to promote unfolding and enzyme inactivation while solubilizing multimeric proteins. In this context, restoration of enzyme activity upon denaturation (READ) was first introduced to characterize PCs that stabilize yet enhance the activity of a lysosomal enzyme, β-glucocerebrosidase (GCase). […]

`O=C(O)C1=CC(=O)[C@@H](O)[C@H](O)C1` [DSA, 3-dehydroshikimic acid]: on WT-PAH [1], the “chaperone activity upon refolding (in words)” value was “abolishes the chaperone activity”. Same read-out and setting: in the case of `CCOC(=O)C1=C[C@@H](O)[C@@H](O)[C@H](O)C1` [ESA, ethoxyshikimate] it was “abolishes the chaperone activity”. Turning to `O=C(O)C1(O)C[C@@H](O)C(O)[C@H](O)C1` (stereo partly drawn) [QA, D-quinic acid], the “stabilization / enhancement effect on PAH activity (in words)” value (shortened to “stabilization / enhancement effect”) at WT-PAH [2] is reported as “exhibits PAH stabilization”. On WT-PAH [1], the “chaperone activity upon refolding (in words)” value was “significantly restored; also recorded: chaperone activity”.

For `Nc1c(Br)cc(Br)cc1CN[C@H]1CC[C@H](O)CC1` [ambroxol], the “stabilization / enhancement effect” value on WT-PAH [2] is “no enhancement effect”. The same measure, in the same setting: in the case of `OCCN1CCN(CCCN2c3ccccc3Sc3ccc(C(F)(F)F)cc32)CC1` [fluphenazine] it was “no enhancement effect”; in that of `OC[C@H]1CNC[C@@H](O)[C@@H]1O` [isofagomine], “no enhancement effect”. In the case of `O=C(O)c1cc(O)c(O)c(O)c1` [GA, gallic acid], the “oligomerization of beta-amyloid peptide (in words)” value in the test on beta-amyloid peptide is given as “inhibits oligomerization of beta-amyloid peptide”. The “chaperone activity upon refolding (in words)” value at WT-PAH [1] is “destabilizes and reduces the activity of WT-PAH upon refolding”. Usually IC50 stands for the midpoint of a concentration-inhibition curve. As for `O=C(O)C1=CC(O)C(O)C(O)C1F` (stereo not drawn) [6-fluoro-shikimate], the IC50 in the test on Plasmodium falciparum is 15 µM. On to `COc1ccc([C@@H]2Sc3ccccc3N(CCN(C)C)C(=O)[C@@H]2OC(C)=O)cc1` [diltiazem], for which, at WT-PAH [2], the “stabilization / enhancement effect” value is on record as “no enhancement effect”. In the case of `O=C(O)C1=C[C@@H](O)[C@@H](O)[C@H](O)C1` [SA, (3R,4S,5R)-3,4,5-trihydroxycyclohex-1-ene-1-carboxylic acid], the “activity enhancement of R261Q PAH mutant” value on R261Q PAH mutant is 3-5 fold; at R261Q PAH mutant (listed as HCH), 5 fold. Further, on WT-PAH [2] (8 M urea, ligand-free enzyme (7±0.5) %), the “PAH residual activity (% of WT-PAH)” value amounted to 16%. In addition, the “chaperone activity upon refolding (in words)” value at WT-PAH [1] is reported as “significantly restored”. At WT-PAH [1] (without ligand (7±0.5) %), the “residual activity of WT-PAH after refolding” value was about 38±2%. Besides, the “inhibition or activation of WT-PAH under native conditions (in words)” value on WT-PAH [3] was “weak activation effects; also recorded: lack of SA inhibitory effects”. `O[C@H]1[C@H](O)[C@@H](O)[C@H](O)[C@@H](O)[C@H]1O` [myo-inositol]: at WT-PAH [2], the “stabilization / enhancement effect” value is recorded as “no significant activity”.
